Source: patent US8057829B2, “Methods for repelling insects using sesquiterpene hydrocarbons and their derivatives” (Sterling International Inc., priority 2008, dated 2011)

Assays:
[1] = system: housefly (Musca domestica) antenna; test: GC-EAD antennal response, housefly; conditions: synthetic mixture, about 100 ng of each compound
[2] = system: male false stable fly Muscina stabulans antenna and female mosquito Aedes (Ochlerotatus) increpitus Dyar antenna; test: GC-EAD responses of false stable fly and Aedes increpitus to a synthetic mixture; conditions: about 100 ng of each compound, FIG. 5
Experimental: The GC-EAD responses of the male false stable fly Muscina stabulans antenna and the female mosquito Aedes (Ochlerotatus) increpitus Dyar antenna were tested on a synthetic mixture of linalool and two representative sesquiterpene hydrocarbons, β-caryophyllene and α-humulene, and one sesquiterpene oxide, β-caryophyllene oxide, with about 100 ng of each compound in the mixture.
(§1) The following procedures were employed to test the EAD response of an insect antenna to a repellent compound. The GC-EAD technique provides an efficient tool for screening behaviorally active repellents. Several synthetic mixtures of potential insect repellent candidates, mostly sesquiterpene hydrocarbons and derivatives, were analyzed in splitless mode using a Varian CP-3800 GC equipped with a polar column (Innowax; 1.0 μm film thickness, 30 m×0.53 mm ID; J & W Scientific), and a 1:1 effluent splitter that allowed simultaneous flame ionization detection (FID) and EAD of the separated volatile compounds. Helium was used as the carrier gas, and the injector temperature was 220° C. The column temperature was 50° C. for 2 min, rising to 240° C. at 10° C./min, then held for 10 min. The outlet for the EAD was held in a humidified air stream flowing at 0.5 liter/min. over an antennal preparation. A glass capillary indifferent electrode filled with Beadle-Ephrussi Ringer, and grounded via a silver wire, was inserted into the severed insect's head with the antennae. A similar recording electrode connected to a high-impedance DC amplifier with automatic baseline drift compensation was placed in contact with the distal end of one antenna (Zhang et al., Chemoecology, 10:69-80 (2000)). The antennal signals were stored and analyzed on a PC equipped with a serial IDAC interface box and the program EAD ver. 2.5 (Syntech, Hilversum, The Netherlands). The compound 1-octen-3-ol (known attractant for many flies and mosquitoes) was included in most of the synthetic mixtures, as a positive control. The results of the experiments are shown in FIGS. 1-10 and described above.

[3] = system: antennae of Musca domestica, Lucillia sericata, Sarcophaga sp., Muscina stabulans, Culex pipiens, Aedes increpitus; test: GC-EAD responses of several flies and two mosquitoes to a synthetic mixture; conditions: about 100 ng of each compound, FIG. 6
Experimental: The GC-EAD responses of several species of flies and two species of mosquito antennae were tested on a synthetic mixture of 1-octen-3-ol, linalool, two representative sesquiterpene hydrocarbons, β-caryophyllene and α-humulene, ZE-nepetalactone, EZ-nepetalactone, and two known insect repellents, DEET, and SS220, with about 100 ng of each compound in the mixture. DEET and SS220 are used as positive controls in the experiment. The compound 1-octen-3-ol is a known attractant for the insects and is also used as a positive control. The insects tested are species of Musca domestica, Lucillia sericata, Sarcophaga sp., Muscina stabulans, Culex pipiens, and Aedes increpitus.
as §1, with “2.5 (Syntech, Hilversum, The Netherlands). The compound 1-octen-3-ol (known attractant for many flies and mosquitoes) was included in most of the synthetic mixtures, as a positive control. The results of the experiments are shown in FIGS. 1-10 and described above.” left out

[4] = system: antennae of housefly, sand fly, and mosquitoes Aedes aegypti, Anopheles gambiae, Anopheles stephensi; test: GC-EAD antennal responses to SPME samples of clove essential oil; conditions: component of clove essential oil SPME sample; response by one or more of the insects; FIG. 1
Experimental: The GC-EAD antennal response of a female housefly (Musca domestica), sand fly (Phlebotomus papatasi), and mosquitoes including the species Aedes aegypti, Anopheles gambiae, and Anopheles stephensi were tested with clove essential oil. FIG. 1 is a simultaneous recording of GC flame ionization detection (FID) and electroantennographic detection (EAD) of the insect antennae to solid phase microextraction (SPME: CAR/PDMS) samples of clove essential oil in a 20 ml glass vial for 20 sec.
as §1, with “The results of the experiments are shown in FIGS. 1-10 and described above.” left out

[5] = system: antennae of housefly, sand fly, and mosquitoes (Aedes aegypti, Aedes increpitus, Anopheles gambiae); test: GC-EAD antennal responses to SPME samples of patchouli essential oil; conditions: component of patchouli essential oil SPME sample; response by one or more of the insects; FIG. 2
Experimental: as §1, with “control.” for “control. The results of the experiments are shown in FIGS. 1-10 and described above.”

[6] = female housefly antenna, FIG. 3

With `C=C1C2CCC3[C@H]2C(C)(C)CCC[C@]13C` (single isomer, unassigned; (+)) [(+)-Longifolene] the GC-EAD antennal activity [1, 6] was “active”.
For `C=C1CC/C=C(\C)CC[C@@H]2[C@@H]1CC2(C)C` [β-Caryophyllene, β-caryophyllene], the GC-EAD antennal activity [1, 6] was “active”, the GC-EAD antennal activity ([1]; male housefly antenna, FIG. 4) was “EAD-active” and the GC-EAD antennal activity [2] was “active on at least one of the insects tested”. For the same compound, the GC-EAD antennal activity [3] was “active on at least one of the insects tested”, the GC-EAD antennal activity [4] was “EAD-active” and the GC-EAD antennal activity [5] was “elicited EAD-activity”.
In the case of `C=C1CC/C=C(/C)CC[C@@H]2[C@@H]1CC2(C)C` [Isocaryophyllene, isocaryophyllene], the GC-EAD antennal activity ([1]; male housefly antenna, FIG. 4) is reported as “EAD-active”.
